Assays:
[1] = system: Boophilus microplus; assay: Boophilus microplus injection test; format: in vivo; details: 20 μg/animal; assessed after 7 days
Protocol: (§1) • Solvent: dimethyl sulfoxide
1 μl of the active ingredient solution is injected into the abdomen of 5 engorged adult female cattle ticks (Boophilus microplus). The animals are transferred into dishes and kept in a climate-controlled room.

[2] = system: Rhipicephalus sanguineus; assay: Rhipicephalus sanguineus in vitro contact test with adult brown dog ticks; format: in vivo; details: after 48 h
Protocol: (§2) For the coating of the test tubes, 9 mg of active ingredient are first dissolved in 1 ml of acetone p.a. and then diluted to the desired concentration with acetone p.a. 250 μl of the solution are distributed homogeneously on the inner walls and the base of a 25 ml glass tube by turning and rocking on an orbital shaker (rocking rotation at 30 rpm for 2 h). With 900 ppm of active ingredient solution and internal surface area 44.7 cm^2, given homogeneous distribution, an area-based dose of 5 μg/cm^2 is achieved.
After the solvent has evaporated off, the tubes are populated with 5-10 adult dog ticks (Rhipicephalus sanguineus), sealed with a perforated plastic lid and incubated in a horizontal position in the dark at room temperature and ambient humidity. After 48 h, efficacy is determined. To this end, the ticks are knocked to the base of the tube and incubated on a hotplate at 45-50° C. for not more than 5 min. Ticks which remain motionless on the base or move in such an uncoordinated manner that they are unable to deliberately avoid the heat by climbing upwards are considered to be dead or moribund.
An efficacy of 100% means that all the ticks were dead or moribund. 0% efficacy means that none of the ticks were harmed.

[3] = system: Ctenocephalides felis; assay: Ctenocephalides felis in vitro contact test with adult cat fleas; format: in vivo; details: application rate 5 μg/cm^2 (=500 g/ha); after 48 h; dead or moribund fleas
Protocol: as §2
After the solvent has evaporated off, the tubes are populated with 5-10 adult cat fleas (Ctenocephalides felis), sealed with a perforated plastic lid and incubated in a horizontal position at room temperature and ambient humidity. After 48 h, efficacy is determined. To this end, the tubes are stood upright and the fleas are knocked to the base of the tube. Fleas which remain motionless at the base or move in an uncoordinated manner are considered to be dead or moribund.
100% efficacy means that all the fleas were dead or moribund. 0% efficacy means that no fleas were harmed.

[4] = system: Musca domestica; assay: Musca domestica test; format: in vivo; details: 100 ppm; adult houseflies; after 2 days
Protocol: as §1
To produce a suitable active ingredient formulation, 10 mg of active ingredient are mixed with 0.5 ml of dimethyl sulfoxide, and the concentrate is diluted with water to the desired concentration.
Vessels containing a sponge treated with sugar solution and the active ingredient formulation of the desired concentration are populated with 10 adult houseflies (Musca domestica).

[5] = system: Ctenocephalides felis; assay: Ctenocephalides felis oral test; format: in vivo; details: 100 ppm in citrated cattle blood; after 2 days
[6] = system: Spodoptera frugiperda; assay: Spodoptera frugiperda spray test; format: in vivo; details: 100 g/ha; after 7 days
[7] = system: Phaedon cochleariae; assay: Phaedon cochleariae spray test; details: 100 g/ha; after 7 days
[8] = system: Tetranychus urticae; assay: Tetranychus urticae spray test, OP-resistant (bean leaf discs); format: in vivo; details: 100 g/ha; after 6 days
Protocol: After 6 days, the efficacy in % is determined.

[9] = application rate 5 μg/cm^2 (=500 g/ha), dead or moribund ticks

CC(=O)N(Cc1cc(-c2cnn(-c3c(Cl)cc(C(F)(C(F)(F)F)C(F)(F)F)cc3Cl)c2)ccc1Cl)CC1CC1 [Ia-116]
100%: efficacy (laying of fertile eggs) [1] | efficacy [3] | efficacy (rate of extermination) [4] | efficacy (rate of extermination) [5] | efficacy [6] | efficacy [7] | efficacy [8]
80%: efficacy [2, 9]

CC(=O)NCc1cc(-c2cnn(-c3c(Cl)cc(C(F)(C(F)(F)F)C(F)(F)F)cc3C(F)(F)F)c2)ccc1F [Ia-82]
100%: efficacy (laying of fertile eggs) [1] | efficacy [2, 9] | efficacy [3] | efficacy (rate of extermination) [4] | efficacy (rate of extermination) [5] | efficacy [6] | efficacy [7] | efficacy [8]

CSc1cc(C(F)(C(F)(F)F)C(F)(F)F)cc(Cl)c1-n1cc(-c2ccc(F)c(CNC(C)=O)c2)cn1 [Ia-07]
83%: efficacy [6]
100%: efficacy (laying of fertile eggs) [1] | efficacy [3] | efficacy (rate of extermination) [4] | efficacy (rate of extermination) [5] | efficacy [7] | efficacy [8]

CC(=O)N(C)Cc1cc(-c2cnn(-c3c(Cl)cc(C(F)(C(F)(F)F)C(F)(F)F)cc3Cl)c2)ccc1Cl [Ia-20]
90%: efficacy (rate of extermination) [4]
80%: efficacy [2, 9]
100%: efficacy (laying of fertile eggs) [1] | efficacy [3] | efficacy (rate of extermination) [5] | efficacy [6] | efficacy [7] | efficacy [8]

CC(=O)N(C)Cc1cc(-c2cnn(-c3c(Cl)cc(C(F)(C(F)(F)F)C(F)(F)F)cc3OC(F)(F)F)c2)ccc1F [Ia-63]
80%: efficacy [2, 9]
100%: efficacy (laying of fertile eggs) [1] | efficacy [3] | efficacy (rate of extermination) [4] | efficacy (rate of extermination) [5] | efficacy [6] | efficacy [7] | efficacy [8]

CCC(=O)NCc1cc(-c2cnn(-c3c(Cl)cc(C(F)(C(F)(F)F)C(F)(F)F)cc3Cl)c2)ccc1Cl [Ia-16]
100%: efficacy (laying of fertile eggs) [1] | efficacy [2, 9] | efficacy [3] | efficacy (rate of extermination) [4] | efficacy (rate of extermination) [5] | efficacy [6] | efficacy [7]

N#Cc1cc(C(F)(C(F)(F)F)C(F)(F)F)cc(Cl)c1-n1cc(-c2ccc(F)c(CNC(=O)C3CC3)c2)cn1 [Ia-107]
100%: efficacy (laying of fertile eggs) [1] | efficacy [3] | efficacy (rate of extermination) [4] | efficacy (rate of extermination) [5] | efficacy [6] | efficacy [7] | efficacy [8]

CCC(=O)NCc1cc(-c2cnn(-c3c(Cl)cc(C(F)(C(F)(F)F)C(F)(F)F)cc3Cl)c2)ccc1F [Ia-30]
100%: efficacy (laying of fertile eggs) [1] | efficacy [2, 9] | efficacy [3] | efficacy (rate of extermination) [4] | efficacy (rate of extermination) [5] | efficacy [6]

Cc1cc(C(F)(C(F)(F)F)C(F)(F)F)cc(Cl)c1-n1cc(-c2ccc(F)c(CNC(=O)C3CC3)c2)cn1 [Ia-67]
100%: efficacy (laying of fertile eggs) [1] | efficacy (rate of extermination) [4] | efficacy (rate of extermination) [5] | efficacy [6] | efficacy [7] | efficacy [8]
80%: efficacy [2, 9] | efficacy [3]

CC(=O)NCc1cc(-c2cnn(-c3c(Cl)cc(C(F)(C(F)(F)F)C(F)(F)F)cc3C#N)c2)ccc1Cl [Ia-104]
100%: efficacy (laying of fertile eggs) [1] | efficacy [2, 9] | efficacy [3] | efficacy (rate of extermination) [4] | efficacy (rate of extermination) [5] | efficacy [6] | efficacy [7] | efficacy [8]

CCC(=O)NCc1cccc(-c2cnn(-c3c(C)cc(C(F)(C(F)(F)F)C(F)(F)F)cc3Cl)c2)c1 [Ia-69]
80%: efficacy ([2]; application rate 1 μg/cm^2 (=100 g/ha))
100%: efficacy (laying of fertile eggs) [1] | efficacy [3] | efficacy (rate of extermination) [4] | efficacy (rate of extermination) [5] | efficacy [6] | efficacy [7]

CCC(=O)NC1CCc2ccc(-c3cnn(-c4c(Cl)cc(C(F)(C(F)(F)F)C(F)(F)F)cc4OC(F)F)c3)cc21 (stereo not shown) [I-Tc-03]
100%: efficacy (laying of fertile eggs) [1] | efficacy [2, 9] | efficacy [3] | efficacy (rate of extermination) [5] | efficacy [6] | efficacy [8]

O=C(NCc1cc(-c2cnn(-c3c(Cl)cc(C(F)(C(F)(F)F)C(F)(F)F)cc3C(F)(F)F)c2)ccc1Cl)C1CC1 [Ia-54]
80%: efficacy [3]
100%: efficacy (laying of fertile eggs) [1] | efficacy [2, 9] | efficacy (rate of extermination) [4] | efficacy (rate of extermination) [5] | efficacy [6] | efficacy [7]

O=C(NCc1cc(-c2cnn(-c3c(Cl)cc(C(F)(C(F)(F)F)C(F)(F)F)cc3OC(F)F)c2)ccc1Cl)C1CC1 [Ia-52]
100%: efficacy (laying of fertile eggs) [1] | efficacy [2, 9] | efficacy [3] | efficacy (rate of extermination) [4] | efficacy (rate of extermination) [5] | efficacy [6] | efficacy [7]

CC(=O)NCc1cc(-c2cnn(-c3c(Cl)cc(C(F)(C(F)(F)F)C(F)(F)F)cc3C(F)(F)F)c2)cnc1Cl [Ia-139]
90%: efficacy [8]
100%: efficacy (laying of fertile eggs) [1] | efficacy [2, 9] | efficacy [3] | efficacy (rate of extermination) [4] | efficacy (rate of extermination) [5] | efficacy [6] | efficacy [7]

CC(C)C(=O)NCc1cc(-c2cnn(-c3c(Cl)cc(C(F)(C(F)(F)F)C(F)(F)F)cc3C(F)F)c2)ccc1F [Ia-60]
100%: efficacy (laying of fertile eggs) [1] | efficacy [3] | efficacy (rate of extermination) [4] | efficacy (rate of extermination) [5] | efficacy [6] | efficacy [7] | efficacy [8]

CCC(=O)N(C)Cc1cc(-c2cnn(-c3c(Cl)cc(C(F)(C(F)(F)F)C(F)(F)F)cc3Cl)c2)ccc1F [Ia-71]
100%: efficacy (laying of fertile eggs) [1] | efficacy [3] | efficacy (rate of extermination) [4] | efficacy (rate of extermination) [5] | efficacy [6] | efficacy [7] | efficacy [8]

C=CCN(Cc1cc(-c2cnn(-c3c(Cl)cc(C(F)(C(F)(F)F)C(F)(F)F)cc3Cl)c2)ccc1Cl)C(C)=O [Ia-113]
100%: efficacy (laying of fertile eggs) [1] | efficacy [3] | efficacy (rate of extermination) [4] | efficacy (rate of extermination) [5] | efficacy [6] | efficacy [7]
90%: efficacy [8]

CCC(=O)N(C)Cc1cc(-c2cnn(-c3c(Cl)cc(C(F)(C(F)(F)F)C(F)(F)F)cc3Cl)c2)ccc1Cl [Ia-32]
80%: efficacy [2, 9]
100%: efficacy (laying of fertile eggs) [1] | efficacy [3] | efficacy (rate of extermination) [5] | efficacy [6] | efficacy [7] | efficacy [8]

CC(=O)NCc1c(F)ccc(-c2cnn(-c3c(Cl)cc(C(F)(C(F)(F)F)C(F)(F)F)cc3OC(F)F)c2)c1F [Ia-158]
100%: efficacy (laying of fertile eggs) [1] | efficacy [3] | efficacy (rate of extermination) [4] | efficacy (rate of extermination) [5] | efficacy [6] | efficacy [7] | efficacy [8]
